Experimental data: patent US5049686A, “Novel large-ring diamine platinum(II) and platinum(IV) chelates” (Warner-Lambert Company, priority 1989, dated 1991)

Assays:
Type in all cases: cell-based, murine
L1210DACH = experiment: In vitro cytotoxicity, growth inhibition of Pt(DACH)Cl2-resistant L1210 cell line over 72 hours; details: for ID50 / factor of crossresistance (resistance ratio): L1210DACH; for ID50: 72 hours; for factor of crossresistance (resistance ratio): ID50 resistant / ID50 normal cell line, in parentheses; for factor of crossresistance (resistance ratio) / cross resistance to Pt(DACH)Cl2-resistant L1210 cells in culture: 4320 min
Procedure: (§1) ID50 values are the concentration of complex required to inhibit the in vitro growth of treated cells to a level of 50% of that for untreated cells over a 72-hour period. The cell lines are suspended in appropriate media at a concentration which results in the cells remaining in log phase growth throughout the treatment period. Serially diluted drug is added to duplicate wells containing the cell growth. After 72 hours of incubation of the cell lines in 5% CO2, the cells are counted and the ID50 values determined.
(§2) Resistance ratio values shown in Table 1 were calculated by dividing the ID50 values against the resistant cell lines by the ID50 values against the normal cell lines. The resistance ratio values shown in the table indicate a measure of the degree of resistance of the cell line to a particular drug.

L1210DDP5 = experiment: In vitro cytotoxicity, growth inhibition of resistant L1210 cell line L1210DDP5 over 72 hours; details: for ID50: 72 hours; for factor of crossresistance (resistance ratio): ID50 resistant / ID50 normal cell line, in parentheses, 4320 min
Procedure: as §1, §2

L1210S = experiment: In vitro cytotoxicity, growth inhibition of normal L1210 cell line over 72 hours; details: for ID50: normal L1210 cell line, 72 hours; for factor of crossresistance (resistance ratio): ID50 divided by ID50 against normal cell line, in parentheses, 4320 min
Procedure: as §1, §2

L1210PtR4 = experiment: In vitro cytotoxicity, growth inhibition of resistant L1210 cell line L1210PtR4 over 72 hours; details: for ID50: 72 hours; for factor of crossresistance (resistance ratio): ID50 resistant / ID50 normal cell line, in parentheses, 4320 min
Procedure: as §1, §2

[1] = system: cisplatin-resistant cells; experiment: In vitro activity against cisplatin-resistant L1210 cells compared with cisplatin; details: in words; for effectiveness against cisplatin-resistant cells: compared with cisplatin
Procedure: as §1, §2

L1210 cell lines = experiment: In vitro antitumor activity against L1210 cell lines compared with cisplatin; details: in words
Procedure: as §1, §2

Compound | ID50 (L1210DACH) | ID50 (L1210DDP5) | ID50 (L1210S) | ID50 (L1210PtR4) | factor of crossresistance (resistance ratio) (L1210DACH) | cross resistance to Pt(DACH)Cl2-resistant L1210 cells in culture (L1210DACH) | factor of crossresistance (resistance ratio) (L1210DDP5) | factor of crossresistance (resistance ratio) (L1210S) | factor of crossresistance (resistance ratio) (L1210PtR4) | effectiveness against cisplatin-resistant cells [1] | cross resistance to cisplatin [1] | antitumor activity compared to cisplatin (potency and response) (L1210 cell lines)
N.N.[Cl][Pt][Cl] [Cisplatin, cis-diaminedichloroplatinum(II), reference compound] | 0.467 µg/mL | 5.63 µg/mL | 0.34 µg/mL | 3.61 µg/mL | – | – | – | – | – | – | – | –
NC1CCCCC1N.[Cl][Pt][Cl] (stereo not drawn) [[Pt(trans-l-DACH)Cl2], [SP-4-2-(1R-trans)]-dichloro(1,2-cyclohexanediamine-N,N')platinum, reference compound] | 2.67 µg/mL | 0.176 µg/mL | 0.088 µg/mL | 0.159 µg/mL | 30 | 30 fold | 2 | 1 | 1.8 | – | – | –
(SP-4-2)-Dichloro(1,5-pentanediamine-N,N')-platinum [Example 1] | 1.17 µg/mL | 1.58 µg/mL | 0.43 µg/mL | 1.13 µg/mL | 2.7 | 2.7 fold | 3.7 | 1 | 2.6 | more effective than cisplatin against cisplatin-resistant cells | some degree of cross resistance to cisplatin | superior to cisplatin both in potency and response
(SP-4-2)-Dichloro(1,6-hexanediamine-N,N')-platinum [Example 2] | 2.13 µg/mL | 3.7 µg/mL | 0.93 µg/mL | 2.8 µg/mL | 2.3 | 2.3 fold | 4 | 1 | 3 | more effective than cisplatin against cisplatin-resistant cells | some degree of cross resistance to cisplatin | superior to cisplatin both in potency and response
